Consider 88 compounds from PubChem BioAssay AID651977 (The Scripps Research Institute Molecular Screening Center, 2013).

By IC50 is commonly meant the concentration that gives 50% inhibition.

Activity calls are given as the source filed them. How the calls were made is not given here.

Sequence of Steroidogenic factor 1 (Homo sapiens) (Q13285 whole entry, looked up): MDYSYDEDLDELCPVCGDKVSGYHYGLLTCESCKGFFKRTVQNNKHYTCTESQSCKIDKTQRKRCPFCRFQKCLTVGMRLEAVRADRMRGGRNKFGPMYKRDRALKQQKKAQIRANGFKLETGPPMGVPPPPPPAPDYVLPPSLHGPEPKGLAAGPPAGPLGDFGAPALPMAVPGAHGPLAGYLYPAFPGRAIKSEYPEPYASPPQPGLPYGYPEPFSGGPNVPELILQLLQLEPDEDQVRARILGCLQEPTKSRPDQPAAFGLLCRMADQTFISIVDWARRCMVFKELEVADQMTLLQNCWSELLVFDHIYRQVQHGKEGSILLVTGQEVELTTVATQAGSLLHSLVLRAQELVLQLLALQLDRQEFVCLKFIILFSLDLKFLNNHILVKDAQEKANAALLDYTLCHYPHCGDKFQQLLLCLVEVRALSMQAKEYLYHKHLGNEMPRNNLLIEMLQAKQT

This assay has as its target Steroidogenic factor 1 (Homo sapiens) (UniProt Q13285). Description: dose-dependent inverse agonism at SF1 – cell-based, luminescence, dose response, selectivity assay for LRH-1 inverse agonist project, late-stage follow-up (AID 651977). Conditions: SF1 cell-based luciferase reporter. On the technique in general: A reporter such as luciferase makes a cellular process visible.
For `COc1ccc(NC(=O)CSc2nnc3ccc(-c4cccnc4)nn23)cc1OC`, the IC50 is 1.59 µM.

Consider `O=C(OCC(=O)N1CCN(C(=O)COC(=O)c2ccc(O)cc2O)CC1)c1ccc(O)cc1O`, for which the IC50 was 3.55 µM.

For `COc1ccc(CCNC(=O)COC(=O)C23CC4CC(CC(C4)C2)C3)cc1`, the IC50 is 4.42 µM.

Turning to `Cc1cc(Br)ccc1NC(=O)CSc1nnc(CN2CCOCC2)n1C`, the IC50 was > 35.9 µM (inactive).

On to `CCCN(CC(=O)Nc1ccc(C(C)=O)cc1)CC(=O)Nc1ccccc1C`, for which the IC50 result is “inactive”.

Consider `CCCc1cc(=O)oc2c(C)c(OCC(=O)NCCCn3ccnc3)ccc12`, for which the concentration for half-maximal inhibition (IC50) is 6.68 µM.

Consider `O=C(CSc1nc(=O)n2cc(Cl)ccc2n1)Nc1ccc2c(c1)OCCO2`, for which the IC50 entry is “inactive”.

Consider `CCOc1ccc(OCCC(=O)OCC(=O)Nc2ccc3c(c2)OCCO3)cc1`, for which the IC50 is > 35.9 µM (inactive).

As for `COC(=O)c1ccc(NC(=O)COc2cccc(-n3cnnn3)c2)cc1`, the IC50 is > 12 µM (inactive).

Turning to `COC(=O)c1ccc(NC(=O)CSc2ccc(-c3ccccn3)nn2)cc1`, the IC50 is > 35.9 µM (inactive).

Consider `O=C(COC(=O)CCN1C(=O)C2CC=CCC2C1=O)NCCc1ccc(F)cc1` (stereo not drawn), for which the IC50 is > 35.9 µM (inactive).

`CCCc1cc(=O)oc2cc(C)cc(OCC(=O)NC3CC3)c12`: the IC50 is 2.67 µM.

Turning to `COc1ccc(NC(=O)COC(=O)c2c(-c3ccccc3)noc2C)cc1`, the concentration for half-maximal inhibition (IC50) is 3.19 µM.

Take `CCOc1ccc(NC(=O)COC(=O)CC2CCCCC2)cc1`: the IC50 is > 35.9 µM (inactive).

Regarding `O=c1[nH]c(Nc2ccc3c(c2)OCCO3)nnc1Cc1ccccc1`, the IC50 was > 12 µM (inactive).

For the compound `COc1ccc(CCNC(=O)COC(=O)Cc2ccccc2[N+](=O)[O-])cc1`, the IC50 was > 12 µM (inactive).

`O=C(CSc1nnc(CNC(=O)c2ccccc2F)o1)Nc1ccc2c(c1)OCCO2`: the IC50 was > 35.9 µM (inactive).

Turning to `O=C(Nc1ccccc1)c1oc2ccccc2c1NC(=O)C1CC1`, the IC50 entry is “inactive”.

Turning to `COc1ccc(CCNC(=O)COC(=O)c2cc(Cl)nc(Cl)c2)cc1`, the IC50 is > 35.9 µM (inactive).

As to `CC1SC(C)C(=O)N(CC(=O)Nc2ccc3c(c2)OCO3)C1=O` (stereo not drawn), the IC50 is > 35.9 µM (inactive).

Consider `COc1ccc(NC(=O)CN2C(=O)NC3(CCCC3)C2=O)cc1`, for which the IC50 was > 35.9 µM (inactive).

`COc1ccc(CCNC(=O)CSc2nc3[nH]c(=O)cc(O)c3s2)cc1`: the IC50 is > 35.9 µM (inactive).

On to `COc1ccc(-n2c(N)c(C(=O)NCc3cccnc3)sc2=S)cc1`, for which the IC50 is > 35.9 µM (inactive).

As for `COC(=O)c1ccc(NC(=O)CSc2nncn2-c2cccnc2)cc1`, the IC50 is > 35.9 µM (inactive).

As to `CCCc1cc(=O)oc2cc(OCC(=O)NCCc3ccc(S(N)(=O)=O)cc3)ccc12`, the IC50 entry was “inactive”.

As for `CC(=O)Nc1ncc(Cc2cc(Cl)ccc2Cl)s1`, the IC50 entry was “inactive”.

For the compound `O=C(NCC1CCCO1)c1ccc(NC(=O)c2cccc([N+](=O)[O-])c2)cc1` (stereo not drawn), the concentration for half-maximal inhibition (IC50) was 1.02 µM.

Turning to `COC(=O)c1ccc(NC(=O)CN2CCN(c3ccc(Cl)cc3)CC2)cc1`, the IC50 is > 35.9 µM (inactive).

Regarding `N#CCSc1ccccc1NC(=O)CN1C(=O)C2CC=CCC2C1=O` (stereo not drawn), the IC50 was > 35.9 µM (inactive).

With `COCC(=O)NC1CCN(CC(=O)Nc2ccc(OC)cc2[N+](=O)[O-])CC1`, the IC50 is > 35.9 µM (inactive).

On to `NC(=O)C1CCN(C(=O)COc2ccc3c4c(c(=O)oc3c2)CCCC4)CC1`, for which the IC50 was > 35.9 µM (inactive).

In the case of `CCn1c(SCC(=O)Nc2ccc(Cl)cc2)nnc1C1CC1`, the IC50 is > 35.9 µM (inactive).

Regarding `CCOc1ccc(NC(=O)COC(=O)c2ccc3c(c2)OCCO3)cc1`, the IC50 is > 12 µM (inactive).

With `O=C(COc1ccc2c3c(c(=O)oc2c1)CCCC3)NCc1ccccn1`, the IC50 is > 35.9 µM (inactive).

For `COc1ccc(CCNC(=O)CSc2nn3c(=O)c(C)nnc3s2)cc1OC`, the IC50 is 5.7 µM.

As to `COC(=O)c1ccc(CNC(=O)COC(=O)c2cc(Cl)nc(Cl)c2)cc1`, the IC50 result is “inactive”.

Regarding `CC(=O)c1ccc(OC(C)C(=O)OCC(=O)NCCc2ccccc2)cc1` (stereo not drawn), the IC50 was > 35.9 µM (inactive).

For the compound `Cc1ccc(NC(=O)CSc2nc3[nH]c(=O)cc(O)c3s2)c(Br)c1`, the IC50 was > 35.9 µM (inactive).

Take `O=C(NCc1ccco1)c1nn(-c2ccccc2)c(=O)c2ccccc12`: the IC50 was > 35.9 µM (inactive).

For `O=C(COC(=O)c1ccc(=O)n(Cc2ccccc2)n1)Nc1ccc2c(c1)OCCO2`, the IC50 was > 35.9 µM (inactive).

Consider `O=C(Nc1nc2c(Cl)cccc2s1)c1ccc([N+](=O)[O-])o1`, for which the IC50 is > 12 µM (inactive).

Turning to `O=C(CSc1nnc(CNC(=O)c2c(F)cccc2F)o1)Nc1ccc2c(c1)OCCO2`, the IC50 result is “inactive”.

As for `COc1ccccc1Oc1nnnn1-c1ccc(C(N)=O)cc1`, the IC50 entry was “inactive”.

Consider `Cc1cc(=O)oc2c(C)c(OCC(=O)NC3CC(C)(C)NC(C)(C)C3)ccc12`, for which the IC50 was > 35.9 µM (inactive).

With `O=C(Nc1ccc(Br)cn1)c1ccc([N+](=O)[O-])o1`, the IC50 is > 35.9 µM (inactive).

On to `CCOc1ccc(NC(=O)COC(=O)COc2cccc3c2OC(C)(C)C3)cc1`, for which the IC50 was > 35.9 µM (inactive).

With `CCc1cc(=O)oc2c(C)c(OCC(=O)NCCN3CCOCC3)ccc12`, the IC50 result was “inactive”.

For the compound `Cc1nn(CC(=O)Nc2ccc3c(c2)OCCO3)c(C)c1[N+](=O)[O-]`, the IC50 is > 35.9 µM (inactive).

As for `COc1ccc(CCNC(=O)COC(=O)c2cccn2C)cc1`, the IC50 was > 35.9 µM (inactive).

On to `COCCn1c(C)cc(/C=C(\C#N)C(=O)OCC(=O)Nc2ccc(S(N)(=O)=O)cc2)c1C`, for which the IC50 is > 35.9 µM (inactive).

In the case of `COc1ccc(NC(=O)CSc2ccc3c(c2)OCCO3)cc1`, the IC50 was > 35.9 µM (inactive).

Consider `Cc1cccc(NC(=O)COC(=O)Cc2cccs2)c1C`, for which the IC50 is > 35.9 µM (inactive).

Regarding `O=C1CCCN2N=C(SCC(=O)Nc3ccc(Br)cc3)SC2=N1`, the IC50 was > 35.9 µM (inactive).

For `Cc1sc(NC(=O)C(C)C)c(C(=O)Nc2ccccc2)c1C`, the IC50 was 9.22 µM.

Take `COC(=O)c1ccc(NC(=O)CSc2nc3ncccc3[nH]2)cc1`: the IC50 is > 35.9 µM (inactive).

`Cc1cc(C)c2sc(NC(=O)c3ccc([N+](=O)[O-])o3)nc2c1`: the IC50 is > 35.9 µM (inactive).

Consider `CC(=O)Nc1ccc(N=c2cc([N+](=O)[O-])cc(Cl)n2O)cc1`, for which the IC50 was > 12 µM (inactive).

Turning to `CCOc1ccc(NC(=O)CN2CCN(CC(=O)Nc3ccc(OC)cc3)CC2)cc1`, the IC50 was > 35.9 µM (inactive).

In the case of `Cc1cc(C)c2nc(NC(=O)c3ccc([N+](=O)[O-])o3)sc2c1`, the IC50 is > 35.9 µM (inactive).

Consider `O=C(COC(=O)c1ccc[n+]([O-])c1)Nc1ccc([N+](=O)[O-])cc1Cl`, for which the IC50 is > 35.9 µM (inactive).

In the case of `Cc1ccc(NC(=O)CSc2sc3c(O)cc(=O)[nH]c3c2C#N)c(F)c1`, the IC50 is > 35.9 µM (inactive).

With `COc1ccc(NC(=O)CSc2nc(N)c(-c3ccccc3)c(=O)[nH]2)cc1`, the half-inhibitory concentration (IC50) is 9.92 µM.

As to `COc1ccc(NC(=O)CSc2sc3c(O)cc(=O)[nH]c3c2C#N)c(OC)c1`, the IC50 was > 35.9 µM (inactive).

For `Cc1ccc(NC(=O)COC(=O)C(NS(=O)(=O)c2ccc(Cl)cc2)C(C)O)c(Br)c1` (stereo not drawn), the IC50 was > 35.9 µM (inactive).

Turning to `Cc1cccc(NC(=O)COC(=O)CN2C(=O)c3ccccc3C2=O)c1C`, the IC50 is > 35.9 µM (inactive).

Turning to `CCCc1cc(=O)oc2cc(OCC(=O)NCc3ccccn3)ccc12`, the IC50 was > 35.9 µM (inactive).

`COc1ccc(C2(C)NC(=O)N(CC(=O)NCCC3=CCCCC3)C2=O)cc1OC` (stereo not drawn): the IC50 was > 12 µM (inactive).

Take `CCOc1ccc(NC(=O)CSc2nc3[nH]ncc3c(=O)[nH]2)cc1`: the IC50 is > 35.9 µM (inactive).

As for `Cc1ccc(NC(=O)COC(=O)C(NS(=O)(=O)c2ccc(Cl)cc2)C(C)O)cc1C` (stereo not drawn), the IC50 is 2.28 µM.

For `CCCc1nnc(SCC(=O)Nc2ccc(C(=O)OCC)cc2)o1`, the IC50 is > 35.9 µM (inactive).

Turning to `CCOc1ccc(NC(=O)CSc2nncc(=O)n2N)cc1`, the IC50 was > 35.9 µM (inactive).

As to `CCc1c(C)nc(SCC(=O)Nc2ccc3c(c2)OCCO3)[nH]c1=O`, the IC50 was 7.83 µM.

Turning to `Cc1ccn2c(=O)nc(SCC(=O)Nc3ccc4c(c3)OCCO4)nc2c1`, the IC50 was > 35.9 µM (inactive).

Turning to `Cc1cc(Br)ccc1NC(=O)CN1C(=O)C2CC=CCC2C1=O` (stereo not drawn), the IC50 was 0.351 µM.

As for `COc1ccc(NC(=O)COC(=O)c2cc(S(=O)(=O)N3CCCC3)ccc2O)cc1`, the IC50 was > 35.9 µM (inactive).

For the compound `Cc1ccc(-c2csc(NC(=O)c3ccc([N+](=O)[O-])o3)n2)cc1`, the IC50 is > 35.9 µM (inactive).

Regarding `COc1ccc(CCNC(=O)CSc2ccc(NC(C)=O)cc2)cc1OC`, the 50% inhibitory concentration (IC50) is 8.79 µM.

Consider `COC(=O)c1ccc(NC(=O)CSc2nn3c(=O)c(C)nnc3s2)cc1`, for which the IC50 is > 35.9 µM (inactive).

As for `O=C(Nc1ccc(S(=O)(=O)N2CCOCC2)cc1)c1cccc([N+](=O)[O-])c1`, the IC50 was > 12 µM (inactive).

`Cc1cc(OCC(=O)Nc2nccs2)c2c(C)cc(=O)oc2c1`: the IC50 was > 35.9 µM (inactive).

As for `Cc1ccc(NC(=O)COC(=O)c2cc(=O)c3ccccc3o2)c(Br)c1`, the IC50 is > 35.9 µM (inactive).

As to `CCCc1cc(=O)oc2c(C)c(OCC(=O)NCCN3CCOCC3)ccc12`, the IC50 is 5.64 µM.

For the compound `Cc1ccc2cccc(OCC(=O)NCCC3=CCCCC3)c2n1`, the IC50 was 2.22 µM.

Regarding `CCOc1ccc(NC(=O)CSc2nnc(C(C)C)n2CC)cc1`, the IC50 was > 35.9 µM (inactive).

`CCOc1ccc(OCCN2C(=O)NC(Cc3c[nH]c4ccccc34)C2=O)cc1` (stereo not drawn): the IC50 result was “inactive”.

As to `COc1ccc(NS(=O)(=O)c2ccc(OCC(=O)N3CCN(C)CC3)cc2)cc1Cl`, the IC50 is 9.99 µM.

`CC(=O)c1ccc(NC(=O)C(C)O/N=C(\N)c2ccccc2)cc1` (stereo not drawn): the IC50 result was “inactive”.

Consider `O=C(COc1ccc2c3c(c(=O)oc2c1)CCC3)NCc1ccncc1`, for which the IC50 was > 35.9 µM (inactive).
